Literature values, collected in patent US6713504B2, “Antifungal molecule 2-(3,4-dimethyl-2,5-dihydro-1H-pyrrol-2-yl)-1-methylethyl pentanoate” (Council of Scientific & Industrial Research, priority 2002, dated 2004).

Settings: amphotericin B and its liposomal derivatives; reported by Zager 2000; cited from earlier work

With `C[C@@H]1[C@H](O)[C@@H](C)/C=C/C=C/C=C/C=C/C=C/C=C/C=C/[C@H](O[C@@H]2O[C@H](C)[C@@H](O)[C@H](N)[C@@H]2O)C[C@@H]2O[C@](O)(C[C@@H](O)C[C@@H](O)[C@H](O)CC[C@@H](O)C[C@@H](O)CC(=O)O[C@H]1C)C[C@H](O)[C@H]2C(=O)O` [amphotericin B] as the compound, how does the CT50 read?
Its CT50 is 4.0 to 64.0 µg/mL.
